The target in assay [1] is STAT3 (Homo sapiens, UniProt P40763). The experiment in a line: HTRF assay, STAT3. Type of assay: binding. The settings on record: STAT3 110 nM, without reducing agent, 1 h. Details: the endogenous full‐length proteins (between 748 and 793 amino acids for STAT3/4/5a/5b); endogenous in cells; host or cells: NK-92 cells (DSMZ), whole-cell lysate.
Description: In addition, an HTRF assay was established for STAT3, one of the STAT proteins targeted to a lesser extent in FP assays, as a specificity control (Figure 1B,C). […] A Tb^3+‐cryptate fused to an anti‐6x‐His antibody was chosen as the long‐lived fluorescent donor, while the carboxyfluorescein linked to the respective STAT‐binding peptides served as the acceptor (Figure 2A). Emission was measured with a time delay of 60 μs after excitation, allowing any initial compound fluorescence to decay beforehand.
Homogenous time-resolved fluorescence (HTRF) assays for STAT3, STAT4, STAT5a and STAT5b were carried out using Cisbio Monoclonal Antibody Anti-6His-Tb Gold as the fluorescence donor (Perkin Elmer) and the corresponding CF-labelled binding peptide as the acceptor. Protein at 110 nM (STAT3), 30 nM (STAT4), 110 nM (STAT 5a) or 80 nM (STAT5b) was combined with terbium-labelled antibody at the recommended concentration, 150 nM CF-labelled peptide and compound as indicated, and incubated at room temperature for 1 h. […] Fluorescence /luminescence was measured in Proxiplate 384-well plates (Perkin Elmer), using a 340 nm excitation filter with 520 nm and 620 nm emission filters, with 60 µs time delay. The average reading from 3 wells was obtained. After subtraction of the blank (buffer only) from each reading, the ratio of the 520 nm / 620 nm readings was calculated. […]
In assay [2] the target is T1, STAT5a (Homo sapiens, UniProt P42229).
T1 sequence (P42229 1-794): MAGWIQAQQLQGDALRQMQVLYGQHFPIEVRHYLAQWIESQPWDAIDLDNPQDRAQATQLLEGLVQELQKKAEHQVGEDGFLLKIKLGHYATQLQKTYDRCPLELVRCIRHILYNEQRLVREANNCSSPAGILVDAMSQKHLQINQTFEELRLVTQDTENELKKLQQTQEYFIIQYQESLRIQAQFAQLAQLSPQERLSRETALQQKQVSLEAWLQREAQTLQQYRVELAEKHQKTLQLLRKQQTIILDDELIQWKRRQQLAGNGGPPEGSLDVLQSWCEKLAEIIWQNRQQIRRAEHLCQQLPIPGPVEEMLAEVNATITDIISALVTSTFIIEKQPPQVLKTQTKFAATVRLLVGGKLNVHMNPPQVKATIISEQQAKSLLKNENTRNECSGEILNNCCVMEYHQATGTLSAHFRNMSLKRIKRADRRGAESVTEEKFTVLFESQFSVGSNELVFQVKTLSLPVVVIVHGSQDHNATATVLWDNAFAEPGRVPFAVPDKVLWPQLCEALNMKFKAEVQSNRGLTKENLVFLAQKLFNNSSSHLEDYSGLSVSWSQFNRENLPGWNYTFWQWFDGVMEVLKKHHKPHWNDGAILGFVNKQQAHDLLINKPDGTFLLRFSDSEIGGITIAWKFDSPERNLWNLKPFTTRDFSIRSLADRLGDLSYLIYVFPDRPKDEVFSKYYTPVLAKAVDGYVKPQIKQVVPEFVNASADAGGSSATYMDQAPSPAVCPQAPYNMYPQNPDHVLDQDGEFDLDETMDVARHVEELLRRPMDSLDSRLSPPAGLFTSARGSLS
The experiment in a line: Competitive fluorescence polarization (FP) assay, STAT5a. Type of assay: binding. The settings on record: no reducing agent, 1 h. The text has this: Screening of chemical libraries
Screening of chemical libraries comprising approximately 5000 known bioactive compounds in fluorescence polarization-based assays against phosphorylation-dependent protein-protein interaction domains, including STAT proteins, has been described.[1] PPADS was purchased from Sigma-Aldrich, and iso-PPADS from Bio-Techne.
Fluorescence polarization assays
Competitive fluorescence polarization (FP) assays for STAT1,[2] STAT3,[3] STAT4,[4] STAT5a,[5] STAT5b[6] and STAT6[1] were performed as previously described. Briefly, peptide binding to proteins was analyzed using the following carboxyfluorescein (CF) -labelled pepti des at a concentration of 10 nM: STAT1: 5-CF-GpYDKPHVL-OH, STAT3: 5-CF-GpYLPQTV -NH2, STAT4: 5-CF-GpYLPQNID-OH, STAT5a and STAT5b: 5-CF-GpYLVLDKW-OH, STAT6: 5- […]
CFGp[…]-OH. […] FP was measured using an Infinite F500 plate reader (Tecan) and measurements were converted into percent inhibition according to the binding curve equation. Curves were plotted and best fits calculated using OriginPro […]
Homogenous time-resolved fluorescence (HTRF) assays for STAT3, STAT4, STAT5a and STAT5b were carried out using Cisbio Monoclonal Antibody Anti-6His-Tb Gold as the fluorescence donor (Perkin Elmer) and the corresponding CF-labelled binding peptide as the acceptor. […] The average reading from 3 wells was obtained. […]

STAT3, sequence (P40763 whole entry, species assumed): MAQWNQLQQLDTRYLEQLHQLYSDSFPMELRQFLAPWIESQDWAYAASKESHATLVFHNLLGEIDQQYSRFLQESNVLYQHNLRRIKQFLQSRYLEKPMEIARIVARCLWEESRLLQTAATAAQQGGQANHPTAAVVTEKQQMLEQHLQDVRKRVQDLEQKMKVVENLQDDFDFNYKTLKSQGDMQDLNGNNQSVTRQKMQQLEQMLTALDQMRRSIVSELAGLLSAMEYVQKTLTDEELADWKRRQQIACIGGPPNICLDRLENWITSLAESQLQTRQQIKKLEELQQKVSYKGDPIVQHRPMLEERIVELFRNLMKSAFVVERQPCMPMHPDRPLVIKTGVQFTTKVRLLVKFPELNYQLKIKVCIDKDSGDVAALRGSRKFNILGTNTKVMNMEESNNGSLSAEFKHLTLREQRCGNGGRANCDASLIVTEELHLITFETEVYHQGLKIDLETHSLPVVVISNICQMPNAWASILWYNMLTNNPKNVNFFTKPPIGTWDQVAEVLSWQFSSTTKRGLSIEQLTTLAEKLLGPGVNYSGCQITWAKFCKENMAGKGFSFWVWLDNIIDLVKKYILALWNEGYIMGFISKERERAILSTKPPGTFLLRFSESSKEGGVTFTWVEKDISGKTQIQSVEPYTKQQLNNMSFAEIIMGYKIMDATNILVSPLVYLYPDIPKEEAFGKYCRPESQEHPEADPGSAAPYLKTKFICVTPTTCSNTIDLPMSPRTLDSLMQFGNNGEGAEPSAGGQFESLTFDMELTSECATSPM

As to `Cc1nc(/N=N/c2ccc(S(=O)(=O)O)cc2S(=O)(=O)O)c(COP(=O)(O)O)c(C=O)c1O` [PPADS, pyridoxalphosphate‐6‐azophenyl‐2',4'‐disulfonic acid], the IC50 worked out at 29.6 ± 4 µM in assay [1] and 1.5 ± 0.2 µM in assay [2].

In the case of `Cc1nc(/N=N/c2cc(S(=O)(=O)O)ccc2S(=O)(=O)O)c(COP(=O)(O)O)c(C=O)c1O` [iso‐PPADS], the half-inhibitory concentration (IC50) in assay [1] came out at 31.9 ± 4 µM; in assay [2] it was 4.8 ± 0.4 µM.

For the origin of these results see article PMC12442245, “Activity Analysis of the P2X Receptor Antagonist PPADS against Signal Transducer and Activator of Transcription Proteins” (Chembiochem, 2025).
